Measured values published in US8114904B2, “Luminescence quenchers and fluorogenic probes for detection of reactive species” (Versitech Limited & Morningside Ventures Limited, priority 2008, dated 2012).

Assays:
[1] = Emission spectra of the probe itself; assay type: physicochemical; conditions: Hitachi F2500, 700 V
Procedure: (§1) Compound 10 obtained in Example 4 was dissolved in DMF to a concentration of 10 mM, and then the solution was diluted to 10 μM by 0.1 M phosphate buffer (pH 7.4). The fluorescence spectrum of the 10 μM solution of Compound 10 was measured using a Hitachi F2500 fluorescence spectrometer and the photomultiplier voltage was 700 V. The slit width was 2.5 nm for both excitation and emission. The measurement was carried out at an excitation wavelength of 520 nm. The results shown in FIG. 1 indicate that Compound 10 itself is non-fluorescent.
(§2) Compound 12 obtained in Example 5 was dissolved in DMF to a concentration of 1 mM, and then the solution was diluted to 1 μM by 0.1 M phosphate buffer (pH 7.4). The fluorescence spectrum of the 1 μM solution of Compound 12 was measured using a Hitachi F2500 fluorescence spectrometer and the photomultiplier voltage was 700 V. The slit width was 2.5 nm for both excitation and emission. The measurement was carried out at an excitation wavelength of 515 nm. The results shown in FIG. 4 indicate that Compound 12 itself is non-fluorescent.
as §2, with “Compound 14” for “Compound 12”, “Example 6” for “Example 5”, “FIG. 6” for “FIG. 4”
as §1, with “Compound 30” for “Compound 10”, “Example 7” for “Example 4”, “Hitachi F7000” for “Hitachi F2500”, “was 900” for “was 700”, “nm.” for “nm. The results shown in FIG. 1 indicate that Compound 10 itself is non-fluorescent.”

[2] = Detection of peroxynitrite: fluorescence spectra after addition of peroxynitrite
Procedure: Compound 10 obtained in Example 4 was dissolved in DMF to a concentration of 10 mM, and then the solution was diluted to 10μM by 0.1 M potassium phosphate buffer (pH 7.4). Peroxynitrite solution in 0.1 M NaOH was prepared by the method of Keith and Powell (Keith, W. G. & Powell, R. E.; Kinetics of decomposition of peroxynitrous acid; J. Chem. Soc. A, 1969, 1, 90), and its concentration in the stock solutions used was estimated by using an extinction coefficient of 1670 cm^−1 (mol/L)^−1 at 302 nm (Hughes and Nicklin; The chemistry of pernitrites. Part I. Kinetics of decomposition of pernitrious acid; J. Chem. Soc. A, 1968, 2, 450-452). Peroxynitrite stock solution was added into the solution of Compound 10 to provide various final concentrations, like 0, 2, 6, 10, 20, 30, 50 100, and 200 μM. Fluorescence spectra of the solutions were measured after 5 minutes under the same conditions as mentioned above.
Compound 12 obtained in Example 5 was dissolved in DMF to a concentration of 1 mM, and then the solution was diluted to 1 μM by 0.1 M potassium phosphate buffer (pH 7.4). Peroxynitrite solution in 0.1 M NaOH was prepared by the method of Keith and Powell (Keith, W. G. & Powell, R. E.; Kinetics of decomposition of peroxynitrous acid; J. Chem. Soc. A, 1969, 1, 90), and its concentration in the stock solutions used was estimated by using an extinction coefficient of 1670 cm^−1 (mol/L)^−1 at 302 nm (Hughes and Nicklin; The chemistry of pernitrites. Part I. Kinetics of decomposition of pernitrious acid; J. Chem. Soc. A, 1968, 2, 450-452). Peroxynitrite stock solution was added into the solution of Compound 12 to provide various final concentrations, like 0, 1, 2, 3, 4, 5, 6, and 7 μM. Fluorescence spectra of the solutions were measured after 5 minutes under the same conditions as mentioned above.
Compound 30 obtained in Example 7 was dissolved in DMF to a concentration of 10 mM, and then the solution was diluted to 10 μM by 0.1 M potassium phosphate buffer (pH 7.4). Peroxynitrite solution in 0.1 M NaOH was prepared by the method of Keith and Powell (Keith, W. G. & Powell, R. E.; Kinetics of decomposition of peroxynitrous acid; J. Chem. Soc. A, 1969, 1, 90), and its concentration in the stock solutions used was estimated by using an extinction coefficient of 1670 cm^−1 (mol/L)^−1 at 302 nm (Hughes and Nicklin; The chemistry of pernitrites. Part I. Kinetics of decomposition of pernitrious acid; J. Chem. Soc. A, 1968, 2, 450-452). Peroxynitrite stock solution was added into the solution of Compound 30 to provide various final concentrations. Fluorescence spectra of the solutions were measured after 5 minutes under the same conditions as mentioned above.

[3] = test system: Murine J744.1 macrophages; experiment: Cell assay: detection of peroxynitrite in living cells by fluorescent microscopy; assay type: cell-based
Procedure: (§3) Murine J744.1 macrophages (ATCC, USA) were used to investigate the potential of Compound 22 (acetate form of Compound 10) for the detection of peroxynitrite in living cells. J744.1 macrophages were cultured in Dulbecco's Modified Eagle's Medium (DMEM) (Gibco) containing 10% heat-inactivated fetal bovine serum (Gibco) supplemented with 100 U/ml of penicillin and 100 μg/ml streptomycin at 37° C., 5% CO2. They were subcultured by scraping and seeded on six-well plates according to manufacture's instruction. The growth medium was changed every two to three days. Cells were grown to confluence prior to experiment. Murine J744.1 macrophages were incubated with Compound 22 (20 μM) for 1 hr and then washed three times with PBS buffer.
as §3, with “12 and 12a” for “22 (acetate form of Compound 10)”, “12 or 12a” for “22”, “buffer. […] The fluorescence was induced after treatment with LPS (lipopolysaccharide, 1 μg/ml) for 4 hrs (FIG. 9D and FIG. 10B).” for “buffer.”

| fluorescence of the probe itself ([1]; 10 μM, 0.1 M phosphate buffer pH 7.4, excitation 520 nm) | fluorescence of the probe itself ([1]; 1 μM, 0.1 M phosphate buffer pH 7.4, excitation 515 nm) | Structure (SMILES) | fluorescence intensity at 541 nm with increasing concentration of peroxynitrite ([2]; 10 μM probe, 0.1 M potassium phosphate buffer pH 7.4) | fluorescence intensity after the addition of peroxynitrite ([2]; 10 μM probe, 0.1 M potassium phosphate buffer pH 7.4, measured after 5 minutes, excitation 520 nm) | fluorescence intensity at 535 nm with increasing concentration of peroxynitrite ([2]; 1 μM probe, 0.1 M potassium phosphate buffer pH 7.4, data not shown) | fluorescence intensity after the addition of peroxynitrite ([2]; 1 μM probe, peroxynitrite 0-7 μM, 0.1 M potassium phosphate buffer pH 7.4, after 5 minutes, excitation 515 nm) | fluorescence after treatment with LPS ([3]; 20 μM probe 1 hr, LPS 1 μg/ml for 4 hrs) | subcellular localization ([3]; J744.1 macrophages) | fluorescence observed in the absence of stimulants ([3]; J744.1 macrophages incubated with 20 μM probe for 1 hr) | colocalization with mitochondrial dye MitoTracker Red CMXRos ([3]; LPS-stimulated J744.1 macrophages, 20 μM) |
| --- | --- | --- | --- | --- | --- | --- | --- | --- | --- | --- |
| non-fluorescent |  | CN(c1ccc(CCC(=O)C(F)(F)F)cc1)c1cc2c(cc1Cl)C1(OC(=O)c3ccccc31)c1cc(Cl)c(O)cc1O2 (stereo not shown) [Compound 10] | increases linearly | increase significantly |  |  |  |  |  |  |
|  | non-fluorescent | CN(c1ccc(O)cc1)c1ccc2c(c1)Oc1cc(O)ccc1C21OC(=O)c2ccccc21 (stereo not shown) [Compound 12] |  |  | increases linearly | increase significantly | induced | may selectively localize in mitochondrials | very weak fluorescence | colocalized |
